Laboratory results as given in patent publication US20180213795A1, “PLANT DISEASE CONTROL COMPOSITION AND PLANT DISEASE CONTROL METHOD” (SUMITOMO CHEMICAL COMPANY, LIMITED, priority 2015, published 2018).

Experiments:
Format in all cases: in vivo
[1] = tested on: damping-off fungus (Rhizoctonia solani); experiment: Test Example 23: soybean seed treatment, damping-off control in pots; details: soybean seeds, 20 days after
[2] = tested on: damping-off fungus (Pythium spp.); experiment: Test Example 21: corn seed treatment, damping-off control in pots; details: corn seeds, 20 days after
Procedure: In a rotary seed treatment machine (trade name: HEGE11, manufactured by WINTERSTEIGER), corn seeds (variety: yellow dent corn) were treated by smearing treatment using a flowable formulation of the present bacterial strain as obtained in Formulation Example 13 and ethaboxam flowable formulation (34.6% flowable formulation, Valent U.S.A. Corporation), so that the […] retain the present bacterial strain and/or the compound in the amount shown in Table 6.
Cultivation was carried out in a greenhouse under irrigation. Also, similar procedures were conducted using untreated corn seeds, instead of the treated corn seeds, as described above for the treated compartment (“untreated compartment”). The plants were investigated 20 days after for the number of diseased plants, and the disease incidence was calculated by the following “Equation 1”. The control value of the treated compartment was calculated by the following equation “Equation 2”, based on the disease incidences of the treated compartment and the untreated compartment.
Disease incidence (%)=100×(number of diseased plant/total number of seeded seeds): Equation 1
Control value (%)=100×[(disease incidence in […] in treated compartment)/disease incidence in untreated compartment]: Equation 2
If the effect by the combination of two active ingredients is greater than that of the estimated value E, which is calculated by the Colby's equation as follows, the effect is regarded as synergistic.
wherein, E=Control value when using the mixture of the active ingredients A and B at the concentrations m and n (amount of the active ingredient), respectively. X=Control value when using the active ingredient A at the concentration m (amount of the active ingredient). Y=Control value when using the active ingredient B at the concentration n (amount of the active ingredient).

[3] = tested on: damping-off fungus (Pythium spp.); experiment: Test Example 22: soybean seed treatment, damping-off control in pots; details: soybean seeds, 20 days after
Procedure: If the effect by the combination of two active ingredients is greater than that of the estimated value E, which is calculated by the Colby's equation as follows, the effect is regarded as synergistic. E=X+Y-X·Y/100 wherein, E=Control value when using the mixture of the active ingredients A and B at the concentrations m and n (amount of the active ingredient), respectively. X=Control value when using the active ingredient A at the concentration m (amount of the active ingredient). Y=Control value when using the active ingredient B at the concentration n (amount of the active ingredient). […] Corporation) and metalaxyl flowable formulation (30.14% flowable formulation, trade name: […] Cultivation was carried out in a greenhouse under irrigation. Also, similar procedures were conducted using untreated soybean seeds, instead of the treated soybean seeds, as described above for the treated compartment (“untreated compartment”). […] Disease incidence (%)=100×(number of diseased plant/total number of seeded seeds): […]

**Q.** `CC1CC(C)(C)c2cccc(NC(=O)c3cn(C)nc3C(F)F)c21` (racemic) [The Carboxamide Compound (1)] was tested. Which “Control Value” ([1]; carboxamide compound (1) 0.0004 g/kg seeds) did it give?
**A.** Its value is 40.0%.

**Q.** What about the “Control Value” ([1]; carboxamide compound (1) 0.002 g/kg seeds) of the same compound?
**A.** Its value is 54.3%.

**Q.** What about the “Control Value” ([1]; carboxamide compound (1) 0.01 g/kg seeds) of the same compound?
**A.** The value was 65.7%.

**Q.** With `CCNc1nc(CC)c(C(=O)NC(C#N)c2cccs2)s1` (stereo not drawn) [Ethaboxam, ethaboxam] as the compound, how does the “Control Value” ([2]; ethaboxam 0.00625 g/kg seeds) read?
**A.** Its value is 19.4%.

**Q.** What about the “Control Value” ([2]; ethaboxam 0.025 g/kg seeds) of the same compound?
**A.** The value was 32.3%.

**Q.** What about the “Control Value” ([2]; ethaboxam 0.1 g/kg seeds) of the same compound?
**A.** The value was 48.4%.

**Q.** And the “Control Value” ([3]; ethaboxam 0.075 g/kg seeds)?
**A.** Its value is 46.9%.

**Q.** What about the “Control Value” ([3]; ethaboxam 0.15 g/kg seeds) of the same compound?
**A.** Its value is 56.2%.

**Q.** And the “Control Value” ([3]; ethaboxam 0.3 g/kg seeds)?
**A.** The value was 62.5%.

**Q.** For `N#Cc1c[nH]cc1-c1cccc2c1OC(F)(F)O2` [Fludioxonil, fludioxonil], which “Control Value” ([1]; fludioxonil 0.004 g/kg seeds) is on record?
**A.** Its value is 25.7%.

**Q.** What about the “Control Value” ([1]; fludioxonil 0.02 g/kg seeds) of the same compound?
**A.** Its value is 37.1%.

**Q.** What about the “Control Value” ([1]; fludioxonil 0.1 g/kg seeds) of the same compound?
**A.** Its value is 48.6%.

**Q.** What does the source list for `COCC(=O)N(c1c(C)cccc1C)C(C)C(=O)OC` (stereo not drawn) [Metalaxyl, metalaxyl]?
**A.** Control Value ([3]; metalaxyl 0.01 g/kg seeds): 40.6%; Control Value ([3]; metalaxyl 0.04 g/kg seeds): 50.0%; Control Value ([3]; metalaxyl 0.16 g/kg seeds): 59.4%

**Q.** `COP(=S)(OC)Oc1c(Cl)cc(C)cc1Cl` [Tolclofos-Methyl, tolclofos-methyl] was tested. Which “Control Value” ([1]; tolclofos-methyl 0.01 g/kg seeds) did it give?
**A.** The value was 11.4%.

**Q.** And the “Control Value” ([1]; tolclofos-methyl 0.05 g/kg seeds)?
**A.** The value was 28.6%.

**Q.** What about the “Control Value” ([1]; tolclofos-methyl 0.25 g/kg seeds) of the same compound?
**A.** The value was 42.8%.
